Consider six compounds from patent US20230111310A1, “CARBOXYLIC ACID DERIVATIVE-SUBSTITUTED IMINO ARYL COMPOUND, PREPARATION METHOD THEREFOR, HERBICIDAL COMPOSITION AND USE THEREOF” (Qingdao Kingagroot Chemical Compound Co., Ltd., priority 2020, published 2023).

Holding throughout (type): in vivo
In series [1] the test system is Alopecurus japonicus. Kind of series: Weeding effect in post-emergence stage. Particulars: for Weeding effect in post-emergence stage, Alopecurus japonicus: level of fresh weight growth control rate. In outline:
(§1)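 Read-out is growth control rate, counted 3 weeks post-spray and averaged over three repeats. Greenhouse plants at the 2-3 leaf stage received spray-tower application at 500, 250, 125, 60, 30, 15 or 7.5 g/ha, with methyl oleate EC (1.5 liter/ha) and Tween 80 added.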

For series [2], the system named is Digitaria sanguinalis. Kind of series: Weeding effect in post-emergence stage. Particulars: for Weeding effect in post-emergence stage, Digitaria sanguinalis: level of fresh weight growth control rate. In short, it runs like this:
as §1

Series [3] relates to Setaria viridis. Kind of series: Weeding effect in post-emergence stage. The settings on record: for Weeding effect in post-emergence stage, Setaria viridis: level of fresh weight growth control rate. In outline: as §1
For series [4], the system named is Abutilon theophrasti. Kind of series: Weeding effect in post-emergence stage. The settings on record: level of fresh weight growth control rate. In short, it runs like this:
as §1

Series [5] has as its system Eleusine indica. Kind of series: Weeding effect in post-emergence stage. Particulars: for Weeding effect in post-emergence stage, Eleusine indica: level of fresh weight growth control rate; for activity level (growth control rate) Eleusine indica: post-emergence, 7.5 g/ha, 3 weeks. In outline:
as §1

Series [6] deals with Amaranthus retroflexus. Kind of series: Weeding effect in post-emergence stage. Particulars: 7.5 g/ha, 3 weeks. In short, it runs like this: as §1
Series [7] deals with Echinochloa crusgalli. Kind of series: Weeding effect in post-emergence stage. The settings on record: for Weeding effect in post-emergence stage, Echinochloa crusgalli: level of fresh weight growth control rate; for activity level (growth control rate) Echinochloa crusgalli: post-emergence, 7.5 g/ha, 3 weeks. In short, it runs like this: as §1
Series [8] relates to Descurainia sophia. Kind of series: Weeding effect in pre-emergence stage. The settings on record: 30 g/ha, 4 weeks. In short, it runs like this:
(§2)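 Pots were kept in the greenhouse for 4 weeks and then rated for growth control on activity-level criteria. Spraying took place immediately after sowing at application rates of 500 to 7.5 g/ha, using an acetone/tween 80 formulation diluted with water, on seeds under 0.5-2 cm of soil.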

For series [9], the system named is Amaranthus retroflexus. Kind of series: Weeding effect in pre-emergence stage. Particulars: 30 g/ha, 4 weeks. In outline: as §2
Series [10] relates to Capsella bursa-pastoris. Briefly: Weeding effect in pre-emergence stage. The settings on record: 30 g/ha, 4 weeks. In short, it runs like this:
as §2

Series [11] has as its system Setaria viridis. Kind of series: Weeding effect in pre-emergence stage. Particulars: 30 g/ha, 4 weeks. In short, it runs like this:
as §2

The test system of series [12] is Veronica didyma Tenore. Briefly: Weeding effect in pre-emergence stage. The settings on record: 30 g/ha, 4 weeks. In short, it runs like this:
as §2

The subject of series [13] is Abutilon theophrasti. Briefly: Weeding effect in pre-emergence stage. Particulars: 30 g/ha, 4 weeks. In short, it runs like this: as §2
Series [14] has as its system Soybeans. Kind of series: Pre-emergence stage, crop selectivity. Particulars: 30 g/ha, 4 weeks. In short, it runs like this:
as §2

For series [15], the system named is corn. Kind of series: Pre-emergence stage, crop selectivity. Particulars: 30 g/ha, 4 weeks. In short, it runs like this: as §2
Series [16] relates to cotton. Kind of series: Pre-emergence stage, crop selectivity. Particulars: 30 g/ha, 4 weeks. In outline:
as §2

The test system of series [17] is Peanut. Kind of series: Pre-emergence stage, crop selectivity. The settings on record: 30 g/ha, 4 weeks. In short, it runs like this:
as §2

Setting [18] is: Dose 15 g/ha, fresh weight control rate level.

Turning to `COC(=O)C(C)O/N=C/c1cc(-n2c(=O)cc(C(F)(F)F)n(C)c2=O)c(F)cc1Cl` (racemic) [Compound 194], the “Weeding effect in post-emergence stage, Alopecurus japonicus” value in series [1] (Dose 7.5 g/ha) is 4 (Level 4: growth control rate is greater than or equal to 60% and less than 85%); in [1] (Dose 15 g/ha) it was 5 (Level 5: growth control rate is above 85%). The “Weeding effect in post-emergence stage, Digitaria sanguinalis” value in [2] (Dose 7.5 g/ha) and in series [2] (Dose 15 g/ha) was 5 (Level 5: growth control rate is above 85%) throughout. For the same compound, the “Weeding effect in post-emergence stage, Setaria viridis” value in [3] (Dose 7.5 g/ha) and in [3] (Dose 15 g/ha) was 5 (Level 5: growth control rate is above 85%) each time. Also, the “Weeding effect in post-emergence stage, Abutilon theophrasti” value (“Weeding effect … Abutilon theophrasti” for short) in series [4] (Dose 7.5 g/ha) and in series [4] (Dose 15 g/ha) was 5 (Level 5: growth control rate is above 85%) each time. Besides, the “Weeding effect in post-emergence stage, Eleusine indica” value in [5] (Dose 7.5 g/ha) and in series [5] (Dose 15 g/ha) was 5 (Level 5: growth control rate is above 85%) in each case. Also, the “activity level (growth control rate) Eleusine indica” value in [5] is 4 (Level 4: growth control rate is greater than or equal to 60% and less than 85%). For the same compound, in series [6], the “activity level (growth control rate) Amaranthus retroflexus” value is 5 (Level 5: growth control rate is above 85%). Also, the “Weeding effect in post-emergence stage, Echinochloa crusgalli” value in series [7] (Dose 7.5 g/ha) and in [7] (Dose 15 g/ha) was 5 (Level 5: growth control rate is above 85%) in each case. The “activity level (growth control rate) Echinochloa crusgalli” value in series [7] is 4 (Level 4: growth control rate is greater than or equal to 60% and less than 85%).
Turning to `COC(=O)[C@@H](C)O/N=C/c1cc(-n2c(=O)n(C)c(=S)n(C)c2=O)c(F)cc1Cl` [1(R)], the “activity level (growth control rate) Descurainia sophia” value in [8] is recorded as 5 (Level 5: growth control rate is above 85%). Also, the “activity level (growth control rate) Amaranthus retroflexus” value in series [9] and in series [6] was 5 (Level 5: growth control rate is above 85%) each time. In addition, the “activity level (growth control rate) Capsella bursa-pastoris” value in series [10] was 5 (Level 5: growth control rate is above 85%). In series [11], the “activity level (growth control rate) Setaria viridis” value is on record as 5 (Level 5: growth control rate is above 85%). Also, in [12], the “activity level (growth control rate) Veronica didyma Tenore” value is 5 (Level 5: growth control rate is above 85%). Further, in series [13], the “activity level (growth control rate) Abutilon theophrasti” value is 5 (Level 5: growth control rate is above 85%). Also, in series [14], the “plant damage level Soybeans” value is reported as 0 (Level 0: growth control rate is less than 5%). In addition, in series [15], the “plant damage level Corn” value is given as 0 (Level 0: growth control rate is less than 5%). Further, the “plant damage level Cotton” value in [16] is reported as 0 (Level 0: growth control rate is less than 5%). The “plant damage level Peanut” value in series [17] is listed as 0 (Level 0: growth control rate is less than 5%). The “Weeding effect in post-emergence stage, Alopecurus japonicus” value in series [1] (Dose 15 g/ha) is listed as 5 (Level 5: growth control rate is above 85%). For the same compound, in [2] (Dose 15 g/ha), the “Weeding effect in post-emergence stage, Digitaria sanguinalis” value is on record as 5 (Level 5: growth control rate is above 85%). Moreover, in series [3] (Dose 15 g/ha), the “Weeding effect in post-emergence stage, Setaria viridis” value is on record as 5 (Level 5: growth control rate is above 85%). For the same compound, the “Weeding effect … Abutilon theophrasti” value in [4] (Dose 15 g/ha) is recorded as 5 (Level 5: growth control rate is above 85%). Further, the “Weeding effect in post-emergence stage, Eleusine indica” value in series [5] (Dose 15 g/ha) is 5 (Level 5: growth control rate is above 85%). Moreover, in [5], the “activity level (growth control rate) Eleusine indica” value was 5 (Level 5: growth control rate is above 85%). The “Weeding effect in post-emergence stage, Echinochloa crusgalli” value in [7] (Dose 15 g/ha) is listed as 5 (Level 5: growth control rate is above 85%). Also, the “activity level (growth control rate) Echinochloa crusgalli” value in series [7] is 4 (Level 4: growth control rate is greater than or equal to 60% and less than 85%).
For the compound `COC(=O)[C@H](C)O/N=C/c1cc(-n2c(=O)cc(C(F)(F)F)n(C)c2=O)c(F)cc1Cl` [194(S)], in series [5], the “activity level (growth control rate) Eleusine indica” value was 1 (Level 1: growth control rate is greater than or equal to 5% and less than 20%). In series [6], the “activity level (growth control rate) Amaranthus retroflexus” value was 2 (Level 2: growth control rate is greater than or equal to 20% and less than 40%). Also, the “activity level (growth control rate) Echinochloa crusgalli” value in series [7] was 1 (Level 1: growth control rate is greater than or equal to 5% and less than 20%).
On to `COC(=O)C(C)O/N=C/c1cc(-n2c(=O)n(C)c(=S)n(C)c2=O)c(F)cc1Cl` (stereo not drawn) [Compound 1], for which the “Weeding effect in post-emergence stage, Alopecurus japonicus” value in series [1] (Dose 15 g/ha) is 5 (Level 5: growth control rate is above 85%). In addition, the “Weeding effect in post-emergence stage, Digitaria sanguinalis” value in series [2] (Dose 15 g/ha) is reported as 5 (Level 5: growth control rate is above 85%). Also, the “Weeding effect in post-emergence stage, Setaria viridis” value in series [3] (Dose 15 g/ha) is 5 (Level 5: growth control rate is above 85%). Besides, in [4] (Dose 15 g/ha), the “Weeding effect … Abutilon theophrasti” value is given as 5 (Level 5: growth control rate is above 85%). In series [5] (Dose 15 g/ha), the “Weeding effect in post-emergence stage, Eleusine indica” value is recorded as 5 (Level 5: growth control rate is above 85%). In series [5], the “activity level (growth control rate) Eleusine indica” value is 3 (Level 3: growth control rate is greater than or equal to 40% and less than 60%). Also, in [6], the “activity level (growth control rate) Amaranthus retroflexus” value is 3 (Level 3: growth control rate is greater than or equal to 40% and less than 60%). The “Weeding effect in post-emergence stage, Echinochloa crusgalli” value in series [7] (Dose 15 g/ha) is 5 (Level 5: growth control rate is above 85%). In [7], the “activity level (growth control rate) Echinochloa crusgalli” value is 3 (Level 3: growth control rate is greater than or equal to 40% and less than 60%).
Regarding `COC(=O)CO/N=C/c1cc(-n2c(=O)cc(C(F)(F)F)n(C)c2=O)c(F)cc1Cl` [Control compound D, reference compound], the “Weeding effect in post-emergence stage, Alopecurus japonicus (level)” value in [1] (setting [18]) is 2 (Level 2: growth control rate is greater than or equal to 20% and less than 40%). Further, the “Weeding effect in post-emergence stage, Digitaria sanguinalis (level)” value in series [2] (setting [18]) was 3 (Level 3: growth control rate is greater than or equal to 40% and less than 60%). Also, the “Weeding effect in post-emergence stage, Setaria viridis (level)” value in series [3] (setting [18]) is 3 (Level 3: growth control rate is greater than or equal to 40% and less than 60%). Moreover, the “Weeding effect in post-emergence stage, Eleusine indica (level)” value in [5] (setting [18]) is 3 (Level 3: growth control rate is greater than or equal to 40% and less than 60%). Besides, the “activity level (growth control rate) Eleusine indica” value in [5] is 2 (Level 2: growth control rate is greater than or equal to 20% and less than 40%). Moreover, in series [6], the “activity level (growth control rate) Amaranthus retroflexus” value was 2 (Level 2: growth control rate is greater than or equal to 20% and less than 40%). Also, the “Weeding effect in post-emergence stage, Echinochloa crusgalli (level)” value in series [7] (setting [18]) was 4 (Level 4: growth control rate is greater than or equal to 60% and less than 85%). Further, in [7], the “activity level (growth control rate) Echinochloa crusgalli” value is 1 (Level 1: growth control rate is greater than or equal to 5% and less than 20%).
Turning to `COC(=O)[C@H](C)O/N=C/c1cc(-n2c(=O)n(C)c(=S)n(C)c2=O)c(F)cc1Cl` [1(S)], the “activity level (growth control rate) Eleusine indica” value in series [5] is 1 (Level 1: growth control rate is greater than or equal to 5% and less than 20%). For the same compound, the “activity level (growth control rate) Amaranthus retroflexus” value in [6] is 1 (Level 1: growth control rate is greater than or equal to 5% and less than 20%). Also, the “activity level (growth control rate) Echinochloa crusgalli” value in series [7] is 1 (Level 1: growth control rate is greater than or equal to 5% and less than 20%).
